Source: ChEMBL document CHEMBL4507281, “Data for DCP probe BI-4394” (2021)

Tests used:
Details in all cases: Compound concentration 100.0 nM
[1] = test system: Tyrosine-protein kinase ABL1 (Homo sapiens), P00519 [H396P]
[2] = target: Serine/threonine-protein kinase B-raf (Homo sapiens) (UniProt P15056)
[3] = target: Mitotic checkpoint serine/threonine-protein kinase BUB1 (Homo sapiens) (UniProt O43683)
[4] = target: Calcium/calmodulin-dependent protein kinase type 1 (Homo sapiens) (UniProt Q14012)
[5] = target: Calcium/calmodulin-dependent protein kinase type II subunit beta (Homo sapiens) (UniProt Q13554)
[6] = target: Calcium/calmodulin-dependent protein kinase kinase 1 (Homo sapiens) (UniProt Q8N5S9)
[7] = target: Ephrin type-B receptor 4 (Homo sapiens) (UniProt P54760)
[8] = target: Serine/threonine-protein kinase/endoribonuclease IRE1 (Homo sapiens) (UniProt O75460)
[9] = target: Hormonally up-regulated neu tumor-associated kinase (Homo sapiens) (UniProt P57058)
[10] = target: T1, Interleukin-1 receptor-associated kinase 4 (Homo sapiens) (UniProt Q9NWZ3)
T1 sequence (whole entry): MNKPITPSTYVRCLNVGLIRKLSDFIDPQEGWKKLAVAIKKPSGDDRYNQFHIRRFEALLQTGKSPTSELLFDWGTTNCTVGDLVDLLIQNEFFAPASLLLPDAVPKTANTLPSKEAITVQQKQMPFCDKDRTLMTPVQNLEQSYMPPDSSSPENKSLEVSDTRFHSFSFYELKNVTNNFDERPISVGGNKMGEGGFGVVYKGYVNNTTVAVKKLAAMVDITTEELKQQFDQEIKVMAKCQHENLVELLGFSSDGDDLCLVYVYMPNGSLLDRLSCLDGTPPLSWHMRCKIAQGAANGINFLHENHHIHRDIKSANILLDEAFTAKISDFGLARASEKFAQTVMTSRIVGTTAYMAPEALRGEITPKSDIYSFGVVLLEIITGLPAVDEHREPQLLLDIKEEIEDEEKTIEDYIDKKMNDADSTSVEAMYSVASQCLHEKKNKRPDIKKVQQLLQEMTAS

[11] = target: Mitogen-activated protein kinase kinase kinase 4 (Homo sapiens) (UniProt Q9Y6R4)
[12] = target: Serine/threonine-protein kinase 38-like (Homo sapiens) (UniProt Q9Y2H1)
[13] = target: T2, Phosphorylase b kinase regulatory subunit alpha, liver isoform (Homo sapiens) (UniProt P46019)
T2 sequence (whole entry): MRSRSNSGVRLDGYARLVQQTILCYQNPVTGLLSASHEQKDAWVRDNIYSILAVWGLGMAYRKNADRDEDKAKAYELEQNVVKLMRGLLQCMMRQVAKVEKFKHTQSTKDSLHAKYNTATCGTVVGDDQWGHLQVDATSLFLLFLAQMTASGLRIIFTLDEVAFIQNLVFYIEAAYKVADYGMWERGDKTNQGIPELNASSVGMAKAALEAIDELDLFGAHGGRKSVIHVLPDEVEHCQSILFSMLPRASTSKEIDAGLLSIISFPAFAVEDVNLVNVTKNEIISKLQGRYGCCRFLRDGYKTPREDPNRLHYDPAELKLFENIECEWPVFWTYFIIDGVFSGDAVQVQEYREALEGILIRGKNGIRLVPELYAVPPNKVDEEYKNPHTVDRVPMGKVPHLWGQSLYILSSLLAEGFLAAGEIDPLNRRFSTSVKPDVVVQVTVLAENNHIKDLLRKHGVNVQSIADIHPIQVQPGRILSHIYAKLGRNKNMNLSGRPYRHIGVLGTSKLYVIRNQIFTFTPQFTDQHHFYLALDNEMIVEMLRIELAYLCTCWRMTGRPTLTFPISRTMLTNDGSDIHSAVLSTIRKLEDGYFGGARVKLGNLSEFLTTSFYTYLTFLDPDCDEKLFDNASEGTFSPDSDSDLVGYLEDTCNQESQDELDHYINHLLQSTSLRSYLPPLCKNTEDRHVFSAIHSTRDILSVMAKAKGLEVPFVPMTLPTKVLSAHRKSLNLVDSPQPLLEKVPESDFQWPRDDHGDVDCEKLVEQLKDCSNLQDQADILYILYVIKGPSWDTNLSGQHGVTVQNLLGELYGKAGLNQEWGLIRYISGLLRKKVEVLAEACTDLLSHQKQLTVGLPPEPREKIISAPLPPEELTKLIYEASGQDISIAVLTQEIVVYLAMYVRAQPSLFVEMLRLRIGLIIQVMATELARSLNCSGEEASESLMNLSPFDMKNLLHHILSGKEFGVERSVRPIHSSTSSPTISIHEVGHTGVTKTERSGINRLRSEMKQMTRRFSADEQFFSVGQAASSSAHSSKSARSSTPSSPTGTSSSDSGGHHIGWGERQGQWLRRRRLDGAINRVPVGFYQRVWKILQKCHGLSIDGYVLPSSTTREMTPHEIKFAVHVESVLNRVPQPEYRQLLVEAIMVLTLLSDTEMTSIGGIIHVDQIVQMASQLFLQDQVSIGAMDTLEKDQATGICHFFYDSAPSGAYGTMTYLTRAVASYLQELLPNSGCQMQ

[14] = test system: Phosphatidylinositol 4,5-bisphosphate 3-kinase catalytic subunit alpha isoform (Homo sapiens), P42336 [E545K]
[15] = target: cAMP-dependent protein kinase catalytic subunit alpha (Homo sapiens) (UniProt P17612)
[16] = target: Protein kinase C delta type (Homo sapiens) (UniProt Q05655)
[17] = target: Protein kinase C eta type (Homo sapiens) (UniProt P24723)
[18] = target: Protein-tyrosine kinase 2-beta (Homo sapiens) (UniProt Q14289)
[19] = target: Ribosomal protein S6 kinase alpha-4 (Homo sapiens) (UniProt O75676)
[20] = target: Tyrosine-protein kinase Srms (Homo sapiens) (UniProt Q9H3Y6)
[21] = target: Testis-specific serine/threonine-protein kinase 1 (Homo sapiens) (UniProt Q9BXA7)
[22] = target: Mitogen-activated protein kinase kinase kinase 19 (Homo sapiens) (UniProt Q56UN5)

Measured: residual activity

Sequence of Ribosomal protein S6 kinase alpha-4 (Homo sapiens) (O75676 whole entry, looked up): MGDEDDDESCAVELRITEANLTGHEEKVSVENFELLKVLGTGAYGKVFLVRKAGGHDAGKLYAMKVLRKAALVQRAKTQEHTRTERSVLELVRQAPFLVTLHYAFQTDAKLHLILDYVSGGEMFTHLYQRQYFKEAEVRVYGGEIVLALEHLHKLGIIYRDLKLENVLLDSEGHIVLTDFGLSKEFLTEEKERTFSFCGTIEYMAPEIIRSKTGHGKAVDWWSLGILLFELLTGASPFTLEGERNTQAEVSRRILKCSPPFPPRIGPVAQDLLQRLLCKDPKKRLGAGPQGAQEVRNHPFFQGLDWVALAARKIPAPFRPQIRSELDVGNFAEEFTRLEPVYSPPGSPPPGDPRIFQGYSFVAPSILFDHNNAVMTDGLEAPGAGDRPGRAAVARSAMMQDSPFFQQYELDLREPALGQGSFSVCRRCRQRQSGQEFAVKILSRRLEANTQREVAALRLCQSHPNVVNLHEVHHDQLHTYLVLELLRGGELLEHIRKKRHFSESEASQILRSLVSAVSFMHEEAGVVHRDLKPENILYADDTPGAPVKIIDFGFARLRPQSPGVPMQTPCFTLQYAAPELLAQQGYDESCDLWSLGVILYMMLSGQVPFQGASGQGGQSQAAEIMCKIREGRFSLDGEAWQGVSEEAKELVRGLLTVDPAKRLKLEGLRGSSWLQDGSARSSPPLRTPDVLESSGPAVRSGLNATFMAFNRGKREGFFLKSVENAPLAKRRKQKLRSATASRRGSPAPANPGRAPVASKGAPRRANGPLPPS
Sequence of Serine/threonine-protein kinase/endoribonuclease IRE1 (Homo sapiens) (O75460 19-977 limits assumed): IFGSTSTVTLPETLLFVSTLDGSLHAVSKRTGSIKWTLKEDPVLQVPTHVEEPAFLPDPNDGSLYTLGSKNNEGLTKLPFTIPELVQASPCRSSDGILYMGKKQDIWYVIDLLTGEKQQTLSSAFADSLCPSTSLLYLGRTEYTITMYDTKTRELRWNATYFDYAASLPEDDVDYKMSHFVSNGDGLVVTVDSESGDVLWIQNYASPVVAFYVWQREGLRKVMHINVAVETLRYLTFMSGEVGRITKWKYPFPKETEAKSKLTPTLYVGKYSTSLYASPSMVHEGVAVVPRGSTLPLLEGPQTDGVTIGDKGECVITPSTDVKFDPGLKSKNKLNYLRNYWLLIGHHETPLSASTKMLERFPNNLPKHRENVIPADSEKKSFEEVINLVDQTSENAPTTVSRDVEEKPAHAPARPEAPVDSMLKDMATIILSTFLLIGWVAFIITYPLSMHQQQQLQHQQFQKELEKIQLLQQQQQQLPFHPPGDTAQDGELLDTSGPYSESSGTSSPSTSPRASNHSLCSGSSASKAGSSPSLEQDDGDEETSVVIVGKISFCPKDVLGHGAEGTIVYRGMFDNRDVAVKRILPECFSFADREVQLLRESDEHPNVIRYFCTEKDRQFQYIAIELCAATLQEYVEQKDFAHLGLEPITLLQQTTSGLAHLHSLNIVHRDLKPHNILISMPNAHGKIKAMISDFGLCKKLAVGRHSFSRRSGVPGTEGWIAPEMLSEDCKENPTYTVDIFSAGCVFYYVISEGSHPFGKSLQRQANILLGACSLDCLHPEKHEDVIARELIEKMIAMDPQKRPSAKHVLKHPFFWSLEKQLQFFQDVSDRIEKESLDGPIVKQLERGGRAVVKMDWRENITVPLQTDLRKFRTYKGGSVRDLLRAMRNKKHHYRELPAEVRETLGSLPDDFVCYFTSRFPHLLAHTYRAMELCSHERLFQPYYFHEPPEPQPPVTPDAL
Sequence of Hormonally up-regulated neu tumor-associated kinase (Homo sapiens) (P57058 whole entry): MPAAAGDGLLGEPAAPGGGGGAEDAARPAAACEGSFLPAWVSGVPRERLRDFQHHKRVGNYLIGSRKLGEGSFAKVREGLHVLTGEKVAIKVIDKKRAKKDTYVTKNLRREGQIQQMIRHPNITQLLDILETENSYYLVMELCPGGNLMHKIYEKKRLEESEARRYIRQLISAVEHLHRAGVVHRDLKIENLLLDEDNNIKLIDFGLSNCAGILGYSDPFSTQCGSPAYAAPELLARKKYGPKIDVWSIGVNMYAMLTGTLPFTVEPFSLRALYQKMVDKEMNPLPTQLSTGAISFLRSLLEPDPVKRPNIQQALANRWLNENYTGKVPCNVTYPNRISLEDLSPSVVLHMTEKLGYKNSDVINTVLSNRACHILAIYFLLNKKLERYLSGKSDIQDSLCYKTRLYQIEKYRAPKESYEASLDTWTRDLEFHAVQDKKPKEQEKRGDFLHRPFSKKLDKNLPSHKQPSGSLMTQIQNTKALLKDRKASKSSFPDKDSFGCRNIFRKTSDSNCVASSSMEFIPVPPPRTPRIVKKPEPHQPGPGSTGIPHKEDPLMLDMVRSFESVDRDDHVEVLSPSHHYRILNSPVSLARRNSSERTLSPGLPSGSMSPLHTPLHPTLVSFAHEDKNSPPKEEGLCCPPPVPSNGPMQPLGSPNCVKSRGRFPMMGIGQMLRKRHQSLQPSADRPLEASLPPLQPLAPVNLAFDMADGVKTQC
Sequence of Serine/threonine-protein kinase 38-like (Homo sapiens) (Q9Y2H1 2-464 limits assumed): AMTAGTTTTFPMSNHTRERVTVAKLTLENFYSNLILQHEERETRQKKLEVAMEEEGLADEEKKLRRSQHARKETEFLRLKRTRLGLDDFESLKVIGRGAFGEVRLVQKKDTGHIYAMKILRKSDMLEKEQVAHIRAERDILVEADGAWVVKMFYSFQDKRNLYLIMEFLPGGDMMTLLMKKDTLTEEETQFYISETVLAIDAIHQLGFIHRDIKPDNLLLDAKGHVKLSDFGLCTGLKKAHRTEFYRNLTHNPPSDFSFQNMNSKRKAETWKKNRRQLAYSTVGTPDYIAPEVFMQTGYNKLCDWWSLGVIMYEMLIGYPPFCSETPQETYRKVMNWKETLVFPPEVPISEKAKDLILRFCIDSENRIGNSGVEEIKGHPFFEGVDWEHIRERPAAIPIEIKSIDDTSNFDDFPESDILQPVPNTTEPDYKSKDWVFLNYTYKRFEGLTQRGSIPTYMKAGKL
Sequence of Calcium/calmodulin-dependent protein kinase type II subunit beta (Homo sapiens) (Q13554 whole entry): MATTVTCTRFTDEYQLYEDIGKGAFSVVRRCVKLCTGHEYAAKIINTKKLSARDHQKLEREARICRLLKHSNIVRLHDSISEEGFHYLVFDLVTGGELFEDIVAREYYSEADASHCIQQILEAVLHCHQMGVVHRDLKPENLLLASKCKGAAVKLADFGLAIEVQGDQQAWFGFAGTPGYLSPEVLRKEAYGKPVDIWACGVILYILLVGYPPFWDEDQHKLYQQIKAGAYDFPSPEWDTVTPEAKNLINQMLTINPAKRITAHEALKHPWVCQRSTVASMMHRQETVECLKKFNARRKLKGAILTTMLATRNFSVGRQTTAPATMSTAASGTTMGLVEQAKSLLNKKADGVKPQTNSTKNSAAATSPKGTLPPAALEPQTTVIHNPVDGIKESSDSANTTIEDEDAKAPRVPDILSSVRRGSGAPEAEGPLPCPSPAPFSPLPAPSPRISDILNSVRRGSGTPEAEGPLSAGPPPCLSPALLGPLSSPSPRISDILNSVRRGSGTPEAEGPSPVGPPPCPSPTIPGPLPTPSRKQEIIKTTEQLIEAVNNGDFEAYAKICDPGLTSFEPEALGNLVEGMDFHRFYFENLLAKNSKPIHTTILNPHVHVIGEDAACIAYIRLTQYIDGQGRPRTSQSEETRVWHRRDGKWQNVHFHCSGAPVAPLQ
Sequence of Protein kinase C delta type (Homo sapiens) (Q05655 whole entry, looked up): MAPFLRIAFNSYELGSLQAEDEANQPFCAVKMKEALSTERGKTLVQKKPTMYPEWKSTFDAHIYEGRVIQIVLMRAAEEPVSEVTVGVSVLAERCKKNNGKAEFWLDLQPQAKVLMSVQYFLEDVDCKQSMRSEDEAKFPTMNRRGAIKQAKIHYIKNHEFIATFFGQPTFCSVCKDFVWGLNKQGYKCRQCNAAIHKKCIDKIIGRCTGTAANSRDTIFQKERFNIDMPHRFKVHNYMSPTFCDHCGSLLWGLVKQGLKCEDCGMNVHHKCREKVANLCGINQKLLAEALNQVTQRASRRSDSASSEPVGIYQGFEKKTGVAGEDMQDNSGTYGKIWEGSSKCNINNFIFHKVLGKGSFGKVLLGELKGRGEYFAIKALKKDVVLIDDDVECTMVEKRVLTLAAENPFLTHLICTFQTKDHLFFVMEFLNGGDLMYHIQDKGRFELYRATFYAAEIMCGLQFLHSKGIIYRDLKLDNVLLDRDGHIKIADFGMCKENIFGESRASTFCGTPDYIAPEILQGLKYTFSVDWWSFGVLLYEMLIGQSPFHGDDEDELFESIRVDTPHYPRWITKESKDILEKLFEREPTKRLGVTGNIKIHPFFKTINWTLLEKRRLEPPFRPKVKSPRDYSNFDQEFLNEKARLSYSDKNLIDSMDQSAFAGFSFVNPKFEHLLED
Sequence of Calcium/calmodulin-dependent protein kinase kinase 1 (Homo sapiens) (Q8N5S9 whole entry, looked up): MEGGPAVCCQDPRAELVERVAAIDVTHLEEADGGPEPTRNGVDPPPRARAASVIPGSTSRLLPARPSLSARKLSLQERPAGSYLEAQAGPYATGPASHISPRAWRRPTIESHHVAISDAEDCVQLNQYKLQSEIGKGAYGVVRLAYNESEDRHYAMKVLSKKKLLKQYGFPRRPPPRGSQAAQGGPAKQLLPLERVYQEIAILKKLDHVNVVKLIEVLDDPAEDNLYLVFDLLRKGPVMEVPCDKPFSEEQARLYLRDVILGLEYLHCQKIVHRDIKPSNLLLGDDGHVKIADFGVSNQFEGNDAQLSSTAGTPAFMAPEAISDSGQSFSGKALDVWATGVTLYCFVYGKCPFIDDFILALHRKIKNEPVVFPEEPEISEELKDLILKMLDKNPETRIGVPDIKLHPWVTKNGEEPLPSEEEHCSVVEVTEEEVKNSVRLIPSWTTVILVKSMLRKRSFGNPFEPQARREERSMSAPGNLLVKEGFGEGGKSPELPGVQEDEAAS

CCOC(=O)c1cc2cc(-c3cc(C(=O)NCc4ccc(C(=O)O)cc4)nn3C)ccc2[nH]1 [BI 4394]
inactive: [1] 88% | [2] 91% | [3] 100% | [4] 87% | [5] 96% | [6] 100% | [7] 99% | [8] 90% | [9] 100% | [10] 91% | [11] 91% | [12] 72% | [13] 100% | [14] 100% | [15] 85% | [16] 90% | [17] 87% | [18] 100% | [19] 86% | [20] 90% | [21] 100% | [22] 75%

Cn1nc(C(=O)NCc2ccc(C(=O)O)cc2)cc1-c1ccc2[nH]ccc2c1 [BI 4395]
inactive: [1] 71% | [2] 74% | [3] 83% | [4] 95% | [5] 91% | [6] 85% | [7] 100% | [8] 83% | [9] 65% | [10] 71% | [11] 86% | [12] 99% | [13] 86% | [14] 87% | [15] 100% | [16] 89% | [17] 84% | [18] 96% | [19] 81% | [20] 81% | [21] 100% | [22] 85%
